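48-hour exposure; five concentrations; linearly interpolated endpoints. At the GI50, growth is halved.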 The source made the active and inactive calls. Rule as the data show it: active = GI50 up to about 1.1 µM and inactive = higher.
Assays:
Assay in all cases: NCI-60 cell line screen, 48 h
A498 = test system: A498
A549 = test system: A549
ACHN = test system: ACHN
CAKI-1 = test system: CAKI-1
CCRF-CEM = test system: CCRF-CEM
COLO 205 = test system: COLO 205
DLD-1 = test system: DLD-1
DMS-114 = test system: DMS-114
DMS-273 = test system: DMS-273
EKVX = test system: EKVX
HCC 2998 = test system: HCC 2998
HCT-116 = test system: HCT-116
HL-60 = test system: HL-60
HOP-62 = test system: HOP-62
HOP-92 = test system: HOP-92
HT-29 = test system: HT-29
IGROV-1 = test system: IGROV-1
K562 = test system: K562
KM-20L2 = test system: KM-20L2
KM12 = test system: KM12
LOX IMVI = test system: LOX IMVI
LXFL 529 = test system: LXFL 529
M14 = test system: M14
M19-MEL = test system: M19-MEL
MOLT-4 = test system: MOLT-4
Malme-3M = test system: Malme-3M
NCI-H226 = test system: NCI-H226
NCI-H23 = test system: NCI-H23
NCI-H460 = test system: NCI-H460
NCI-H522 = test system: NCI-H522
OVCAR-3 = test system: OVCAR-3
OVCAR-4 = test system: OVCAR-4
OVCAR-5 = test system: OVCAR-5
RPMI-8226 = test system: RPMI-8226
RXF 393 = test system: RXF 393
RXF 631 = test system: RXF 631
SF-268 = test system: SF-268
SF-295 = test system: SF-295
SF-539 = test system: SF-539
SK-MEL-28 = test system: SK-MEL-28
SK-MEL-2 = test system: SK-MEL-2
SK-MEL-5 = test system: SK-MEL-5
SK-OV-3 = test system: SK-OV-3
SN12C = test system: SN12C
SNB-19 = test system: SNB-19
SNB-75 = test system: SNB-75
SNB-78 = test system: SNB-78
SR = test system: SR
SW-620 = test system: SW-620
TK-10 = test system: TK-10
U-251 = test system: U-251
UACC-257 = test system: UACC-257
UACC-62 = test system: UACC-62
UO-31 = test system: UO-31
XF498 = test system: XF498
786-0 = test system: 786-0
HCT-15 = test system: HCT-15
HOP-18 = test system: HOP-18
OVCAR-8 = test system: OVCAR-8

SMILES: O=[N+]([O-])c1nc(-c2ccccn2)[nH]c1[N+](=O)[O-]
- GI50 (A498): > 100 µM (inactive)
- GI50 (A549): 53.8 µM (inactive)
- GI50 (ACHN): 64.3 µM (inactive)
- GI50 (CAKI-1): 57.7 µM (inactive)
- GI50 (CCRF-CEM): 33.3 µM (inactive)
- GI50 (COLO 205): 45.5 µM (inactive)
- GI50 (DLD-1): 70.5 µM (inactive)
- GI50 (DMS-114): 19 µM (inactive)
- GI50 (DMS-273): 65.8 µM (inactive)
- GI50 (EKVX): > 100 µM (inactive)
- GI50 (HCC 2998): 96.4 µM (inactive)
- GI50 (HCT-116): 22.3 µM (inactive)
- GI50 (HL-60): 30.1 µM (inactive)
- GI50 (HOP-62): > 100 µM (inactive)
- GI50 (HOP-92): > 100 µM (inactive)
- GI50 (HT-29): 47.5 µM (inactive)
- GI50 (IGROV-1): > 100 µM (inactive)
- GI50 (K562): > 100 µM (inactive)
- GI50 (KM-20L2): 39.6 µM (inactive)
- GI50 (KM12): > 100 µM (inactive)
- GI50 (LOX IMVI): 68.7 µM (inactive)
- GI50 (LXFL 529): 89.1 µM (inactive)
- GI50 (M14): 80.5 µM (inactive)
- GI50 (M19-MEL): 57.7 µM (inactive)
- GI50 (MOLT-4): 39.2 µM (inactive)
- GI50 (Malme-3M): 57.4 µM (inactive)
- GI50 (NCI-H226): 74.1 µM (inactive)
- GI50 (NCI-H23): 42.4 µM (inactive)
- GI50 (NCI-H460): 36.6 µM (inactive)
- GI50 (NCI-H522): 18.6 µM (inactive)
- GI50 (OVCAR-3): 59.2 µM (inactive)
- GI50 (OVCAR-4): 44.2 µM (inactive)
- GI50 (OVCAR-5): > 100 µM (inactive)
- GI50 (RPMI-8226): > 100 µM (inactive)
- GI50 (RXF 393): 76.7 µM (inactive)
- GI50 (RXF 631): 57.8 µM (inactive)
- GI50 (SF-268): 43.6 µM (inactive)
- GI50 (SF-295): > 100 µM (inactive)
- GI50 (SF-539): 39.6 µM (inactive)
- GI50 (SK-MEL-28): 54.7 µM (inactive)
- GI50 (SK-MEL-2): > 100 µM (inactive)
- GI50 (SK-MEL-5): 79.3 µM (inactive)
- GI50 (SK-OV-3): > 100 µM (inactive)
- GI50 (SN12C): 71.6 µM (inactive)
- GI50 (SNB-19): > 100 µM (inactive)
- GI50 (SNB-75): 64 µM (inactive)
- GI50 (SNB-78): > 100 µM (inactive)
- GI50 (SR): 32.2 µM (inactive)
- GI50 (SW-620): 66.2 µM (inactive)
- GI50 (TK-10): > 100 µM (inactive)
- GI50 (U-251): 55.2 µM (inactive)
- GI50 (UACC-257): 53.2 µM (inactive)
- GI50 (UACC-62): 26.3 µM (inactive)
- GI50 (UO-31): 70.3 µM (inactive)
- GI50 (XF498): > 100 µM (inactive)

SMILES: CCOC(=O)c1ncn2c1[nH]c(=S)c1ccccc12
- GI50 (786-0): > 100 µM (inactive)
- GI50 (A498): > 100 µM (inactive)
- GI50 (A549): > 100 µM (inactive)
- GI50 (ACHN): > 100 µM (inactive)
- GI50 (CAKI-1): > 100 µM (inactive)
- GI50 (CCRF-CEM): 50.2 µM (inactive)
- GI50 (COLO 205): 49.8 µM (inactive)
- GI50 (DLD-1): > 100 µM (inactive)
- GI50 (DMS-114): 49.1 µM (inactive)
- GI50 (DMS-273): 44.1 µM (inactive)
- GI50 (EKVX): > 100 µM (inactive)
- GI50 (HCC 2998): > 100 µM (inactive)
- GI50 (HCT-116): > 100 µM (inactive)
- GI50 (HCT-15): > 100 µM
- GI50 (HL-60): > 100 µM (inactive)
- GI50 (HOP-18): > 100 µM (inactive)
- GI50 (HOP-62): > 100 µM (inactive)
- GI50 (HOP-92): > 100 µM (inactive)
- GI50 (HT-29): > 100 µM (inactive)
- GI50 (IGROV-1): > 100 µM (inactive)
- GI50 (K562): 91.6 µM (inactive)
- GI50 (KM-20L2): > 100 µM (inactive)
- GI50 (KM12): > 100 µM (inactive)
- GI50 (LOX IMVI): 61.7 µM (inactive)
- GI50 (LXFL 529): > 100 µM (inactive)
- GI50 (M14): > 100 µM (inactive)
- GI50 (M19-MEL): > 100 µM (inactive)
- GI50 (MOLT-4): > 100 µM (inactive)
- GI50 (Malme-3M): > 100 µM (inactive)
- GI50 (NCI-H226): > 100 µM (inactive)
- GI50 (NCI-H23): > 100 µM (inactive)
- GI50 (NCI-H460): > 100 µM (inactive)
- GI50 (NCI-H522): 73.6 µM (inactive)
- GI50 (OVCAR-3): > 100 µM (inactive)
- GI50 (OVCAR-4): > 100 µM (inactive)
- GI50 (OVCAR-5): > 100 µM (inactive)
- GI50 (OVCAR-8): > 100 µM (inactive)
- GI50 (RPMI-8226): 31.3 µM (inactive)
- GI50 (RXF 393): > 100 µM (inactive)
- GI50 (RXF 631): > 100 µM (inactive)
- GI50 (SF-268): > 100 µM (inactive)
- GI50 (SF-295): > 100 µM (inactive)
- GI50 (SF-539): > 100 µM (inactive)
- GI50 (SK-MEL-28): > 100 µM (inactive)
- GI50 (SK-MEL-2): > 100 µM (inactive)
- GI50 (SK-MEL-5): > 100 µM (inactive)
- GI50 (SK-OV-3): > 100 µM (inactive)
- GI50 (SN12C): > 100 µM (inactive)
- GI50 (SNB-19): > 100 µM (inactive)
- GI50 (SNB-75): > 100 µM (inactive)
- GI50 (SW-620): 22.9 µM (inactive)
- GI50 (TK-10): > 100 µM (inactive)
- GI50 (U-251): 46.9 µM (inactive)
- GI50 (UACC-257): > 100 µM (inactive)
- GI50 (UACC-62): > 100 µM (inactive)
- GI50 (UO-31): > 100 µM (inactive)

SMILES: COc1cccc(/C=C/c2cc(OC)c(OC)c(OC)c2)c1
- GI50 (786-0): 30.5 µM (inactive)
- GI50 (A498): 57 µM (inactive)
- GI50 (A549): 42.3 µM (inactive)
- GI50 (ACHN): 87.5 µM (inactive)
- GI50 (CCRF-CEM): 33.7 µM (inactive)
- GI50 (COLO 205): 34.4 µM (inactive)
- GI50 (DLD-1): 18.3 µM (inactive)
- GI50 (DMS-114): 24.9 µM (inactive)
- GI50 (DMS-273): 27.8 µM (inactive)
- GI50 (EKVX): 36.2 µM (inactive)
- GI50 (HCC 2998): > 100 µM (inactive)
- GI50 (HCT-116): 33 µM (inactive)
- GI50 (HCT-15): 53 µM
- GI50 (HOP-62): 37 µM (inactive)
- GI50 (HOP-92): > 100 µM (inactive)
- GI50 (HT-29): 34.4 µM (inactive)
- GI50 (IGROV-1): 47.2 µM (inactive)
- GI50 (K562): 33.3 µM (inactive)
- GI50 (KM-20L2): 19.3 µM (inactive)
- GI50 (KM12): 66.4 µM (inactive)
- GI50 (LXFL 529): 61.7 µM (inactive)
- GI50 (M14): 23.8 µM (inactive)
- GI50 (M19-MEL): 70.1 µM (inactive)
- GI50 (MOLT-4): 36.6 µM (inactive)
- GI50 (Malme-3M): 34.8 µM (inactive)
- GI50 (NCI-H226): 18.4 µM (inactive)
- GI50 (NCI-H23): 30.3 µM (inactive)
- GI50 (NCI-H460): 43.4 µM (inactive)
- GI50 (NCI-H522): > 100 µM (inactive)
- GI50 (OVCAR-3): 26.8 µM (inactive)
- GI50 (OVCAR-5): > 100 µM (inactive)
- GI50 (OVCAR-8): 55.6 µM (inactive)
- GI50 (RPMI-8226): 34 µM (inactive)
- GI50 (RXF 631): 23.7 µM (inactive)
- GI50 (SF-268): 68.9 µM (inactive)
- GI50 (SF-539): 24.4 µM (inactive)
- GI50 (SK-MEL-28): 38.5 µM (inactive)
- GI50 (SK-MEL-2): 62.7 µM (inactive)
- GI50 (SK-MEL-5): 24.8 µM (inactive)
- GI50 (SK-OV-3): 38.2 µM (inactive)
- GI50 (SN12C): 52.2 µM (inactive)
- GI50 (SNB-19): 42.9 µM (inactive)
- GI50 (SNB-75): 18.5 µM (inactive)
- GI50 (SNB-78): 21.8 µM (inactive)
- GI50 (SR): 35.1 µM (inactive)
- GI50 (SW-620): 50.4 µM (inactive)
- GI50 (U-251): 36.5 µM (inactive)
- GI50 (UACC-257): 38.3 µM (inactive)
- GI50 (UACC-62): 25.4 µM (inactive)
- GI50 (UO-31): 21.2 µM (inactive)
- GI50 (XF498): 33.7 µM (inactive)

— ChEMBL document CHEMBL1201862, “PubChem BioAssay data set” (2004)
